According to paper PMC6013238, “Development of novel NEMO-binding domain mimetics for inhibiting IKK/NF-κB activation” (PLoS Biology, 2018):
“And” between values parts separate entries of the source, which are not always exact repeats. Identical values can stand only once. Like-named read-outs stand apart in the source and are kept apart here.

How the values were obtained:
NEMO = conditions: ref [21], [32]–[34]; read-out: IC50, affinity to NEMO; cited from earlier work
[1] = Plasma and tissue concentrations 2 h after a single i.p. injection; format: in vivo, mouse; conditions: male, C57BL/6J, mouse, ip, 10 mg/kg, 2 h post single i.p. 10 mg/kg, single mice
Description: To determine the stability of the NBD mimetics in vivo, their levels were measured in the plasma of mice 2 h post i.p. injection with 10 mg/kg of each compound. The concentration of SR12460 was very high in plasma (>6.5 μg/mL; 20 μM), while levels in brain, muscle, spleen, and liver were lower. SR12343 and SR12454 had lower plasma concentrations, with SR12343 showing a higher level in liver and SR12454 showing higher concentrations in muscle and spleen. The level of SR11481 was undetectable in plasma and tissues (Fig 6A).
Fig 6 Newly identified NBD mimetics suppress LPS-induced acute inflammation in vivo. (A) The bioavailability property of SR12460, SR12343, SR12454, and SR11481. Concentrations of NBD mimetics were determined in plasma, brain, muscle, spleen, and liver 2 h post a single i.p. injection of 10 mg/kg of drugs; n = 3 per group. (B) Shown is the model to induce LPS-mediated acute inflammation and the treatment regimen with NBD mimetics. Mouse image via http://www.clker.com/clipart-mice-blank.html (copyright-free). (C) NBD mimetics suppressed LPS-induced acute inflammation in liver and lung by down-regulating NF-κB target gene expression. Vehicle, SR12343, SR12460, and 8K-NBD peptide were dosed at 10 mg/kg 30 min prior to the LPS treatment. Acute inflammation was induced by i.p. injection of 10 mg/kg LPS. Lung and liver were collected 2–4 h post injection, and mRNA was extracted for qRT-PCR analysis. (D, E) Western blot analysis was performed to probe for the expression of p-IκBα and COX-2 at protein level in liver and lung tissues. (F) Serum levels of IL-6 were determine by ELISA. n = 3–8 each group. *P < 0.05, **P < 0.01. Underlying data can be found in S1 Data. COX-2, cyclooxygenase 2; IL-6, interleukin 6; i.p., intraperitoneal; LPS, lipopolysaccharide; NBD, NEMO-binding domain; n.d., nondetectable; NEMO, NF-κB essential modulator; NF-κB, nuclear factor κB; qRT-PCR, quantitative real-time polymerase chain reaction. TEXT PRINTED IN THE PICTURE: (A) SR11481: Concentration (ng/ml): n.d. (plasma)
The pharmacokinetic profile of the NBD mimetics was determined in male C57BL/6J mice (n = 3). The drugs were formulated in 10:10:80 of DMSO:Tween 80:water and were dosed by i.p. injection at a final dose of 10 mg/kg. Blood, brain, muscle, spleen, and liver were collected 2 h post treatment and were analyzed by mass spectrometry by following a protocol previously described.

NF-κB target genes = assay: qRT-PCR of NF-κB target genes in LPS-stimulated Raw 264.7 cells; format: cell-based, mouse; conditions: LPS 1 μg/ml 2 h; for COX2 mRNA expression (qRT-PCR) / IL6 mRNA expression (qRT-PCR) / IL-1b mRNA expression (qRT-PCR) / TNFa mRNA expression (qRT-PCR) / iNOS mRNA expression (qRT-PCR) / ikBa mRNA expression (qRT-PCR): Fig 4C, IKKi VII 2 μM, 8K-NBD 200 μM, SR compounds 50 μM, relative to no LPS; for Effect on transcription of NF-κB target genes (COX-2, IL-6, IL-1β, TNF-α, IκBα, iNOS): 50 μM
IL-6 production = assay: Mouse IL-6 ELISA of supernatant of LPS-stimulated Raw 264.7 cells; format: cell-based; conditions: LPS 1 μg/ml 24 h; for mIL-6 in supernatant (ELISA): Fig 4D; for Effect on LPS-induced IL-6 production (ELISA): 25 and 50 μM
Description: Fig 4 Modified lead NBD mimetics inhibit TNF-α- and LPS-induced NF-κB activation by disrupting the association between NEMO and IKKβ. (A) Structures of top NBD mimetics. (B) Measurement of NF-κB activation in response to TNF-α by using Dual-luciferase reporter assays. HEK293 cells cotransfected with NF-κB luciferase reporter and SV40-Renilla plasmids were pretreated with DMSO or listed small molecules at 0, 25, 50, 100, and 150 μM for 30 min, followed by the induction of TNF-α for 3 h. Data shown are representative of 2–3 independent experiments. […] Raw 264.7 cells were pretreated with indicated drugs for 30 min and then stimulated with 1 μg/ml of LPS for 2 h. Cells were then harvested for RNA extraction and qRT-PCR analysis. Drug concentrations used are as follows: IKKi VII (2 μM), 8K-NBD peptide (200 μM), SR12343 (50 μM), SR12460 (50 μM), SR12454 (50 μM), and SR11481 (50 μM). Data are representative of 2 independent experiments. […] Raw 264.7 cells pretreated with DMSO or drugs at indicated concentrations were exposed to 1 μg/ml of LPS for 24 h, and supernatant was collected for ELISA analysis of mouse IL-6. *P < 0.05; **P < 0.01. Underlying data can be found in S1 Data. HEK293, human embryonic kidney 293 cells; IKK, IκB kinase; IL-6, interleukin 6; LPS, lipopolysaccharide; NBD, NEMO-binding domain; n.d., nondetectable; NEMO, NF-κB essential modulator; NF-κB, nuclear factor κB; qRT-PCR, […] real-time polymerase chain reaction; TNF-α; tumor necrosis factor α. TEXT PRINTED IN THE PICTURE: (D) ikki VII: mIL-6 (ng/ml): n.d. | (D) SR12460: mIL-6 (ng/ml): n.d. (50μM) | (D) SR12454: mIL-6 (ng/ml): n.d. (50μM) DOUBTS OF THE COPYIST ABOUT THIS PICTURE: Panel D: the only printed results are the three "n.d." labels. They stand in place of bars and are assigned to ikki VII, SR12460 50μM and SR12454 50μM by their position on the axis. All other results are shown only as bars, with no printed numbers.
To confirm the qRT-PCR results, the levels of IL-6 production in Raw 264.7 cells activated by LPS were analyzed by ELISA.
Raw 264.7 cells were grown in 96-well plates and pretreated with vehicle, IKKi VII (2 μM), and small molecules (at indicated concentration) for 1 h, followed by the stimulation with 1 μg/ml of LPS. Supernatant was collected 24 h later for ELISA analysis. IL-6 concentration was measured using a mouse IL-6 ELISA kit (BD) according to the manufacturer’s instructions.

NF-κB activation = assay: Dual-luciferase (NF-κB firefly/SV40-Renilla) reporter assay, TNF-α-stimulated HEK293 cells; format: cell-based, human; conditions: for Relative luciferase activity (NF-κB/Renilla): Fig 4B, CTRL about 1; for NF-κB luciferase activity, dose-dependent curve: Fig S1A, CTRL about 100; for IC50: Homo sapiens, HEK293, luciferase assays at 0, 25, 50, 100, 150 μM, GraphPad, read-out: IC50 of inhibition of TNF-α-mediated NF-κB activation

Row | IC50 (NF-κB activation) | Molecule | IC50 (NEMO) | COX2 mRNA expression (qRT-PCR) (NF-κB target genes) | IL6 mRNA expression (qRT-PCR) (NF-κB target genes) | IL-1b mRNA expression (qRT-PCR) (NF-κB target genes) | TNFa mRNA expression (qRT-PCR) (NF-κB target genes) | iNOS mRNA expression (qRT-PCR) (NF-κB target genes) | ikBa mRNA expression (qRT-PCR) (NF-κB target genes) | Effect on transcription of NF-κB target genes (COX-2, IL-6, IL-1β, TNF-α, IκBα, iNOS) (NF-κB target genes) | mIL-6 in supernatant (ELISA) (IL-6 production; 25 μM) | mIL-6 in supernatant (ELISA) (IL-6 production; 50 μM) | Effect on LPS-induced IL-6 production (ELISA) (IL-6 production) | Relative luciferase activity (NF-κB/Renilla) (NF-κB activation; 25 μM) | Relative luciferase activity (NF-κB/Renilla) (NF-κB activation; 50 μM) | Relative luciferase activity (NF-κB/Renilla) (NF-κB activation; 100 μM) | Relative luciferase activity (NF-κB/Renilla) (NF-κB activation; 150 μM) | NF-κB luciferase activity, dose-dependent curve (NF-κB activation; 25 μM) | NF-κB luciferase activity, dose-dependent curve (NF-κB activation; 50 μM) | NF-κB luciferase activity, dose-dependent curve (NF-κB activation; 100 μM) | NF-κB luciferase activity, dose-dependent curve (NF-κB activation; 150 μM) | other results
1 | – | 11-mer NBD peptide: traditional 11-mer NBD peptide of IKKβ (735–745) (TALDWSWLQTE; NEMO-binding domain peptide; UniProt O14920 735-745, looked up, fragment) | ~100 µM | – | – | – | – | – | – | – | – | – | – | – | – | – | – | – | – | – | – | –
2 | – | IKKβ-derived peptide (701–746): longer IKKβ-derived peptide (701–746) with strongest affinity to NEMO (PAKKSEELVAEAHNLCTLLENAIQDTVREQDQSFTALDWSWLQTEE; UniProt O14920 701-746, looked up, fragment) | ~0.01 µM | – | – | – | – | – | – | – | – | – | – | – | – | – | – | – | – | – | – | –
3 | 45 µM | O=C(COC(=O)Cc1cc(F)cc(F)c1)Nc1ccc(Cl)cn1 [SR11481] | – | 591.346 and 521.171 and 682.383 | 630.626 and 570.463 and 862.622 | 411.733 and 420.368 and 564.689 | 96.3315 and 86.7639 and 154.495 | 25.4503 and 21.5558 and 14.0886 | 12.89 and 13.062 and 21.9932 | did not induce a detectable suppression | 1.0708 ng/mL and 1.7487 ng/mL and 1.6903 ng/mL | 2.4581 ng/mL and 2.0675 ng/mL and 2.2021 ng/mL | significant reduction in the accumulation of IL-6 protein | 0.669 and 0.7893 and 1.108 | 0.3445 and 0.3583 and 0.2895 | 0.1303 and 0.1653 and 0.168 | 0.2602 and 0.3121 and 0.2334 | 67 and 79 and 111 | 34 and 36 and 29 | 13 and 16 and 17 | 26 and 31 and 23 | concentration at 2 h ([1]; plasma, read-out: Concentration in plasma): 0 ng/mL
4 | 20.2 µM | O=C(COCCc1cc(F)cc(F)c1)Nc1ccc(Cl)cn1 [SR12454] | – | 150.094 and 139.148 and 109.409 | 68.7623 and 55.5227 and 41.2895 | 114.812 and 133.157 and 94.1462 | 50.3605 and 45.36 and 45.9381 | 0.9093 and 0.7681 and 0.624 | 6.788 and 6.238 and 5.4976 | significantly inhibit the transcription of all NF-κB target genes tested | 0.9451 ng/mL and 1.2144 ng/mL and 1.5871 ng/mL | 0 ng/mL | inhibit IL-6 secretion significantly in a dose-dependent manner | 0.3499 and 0.3985 and 0.4797 | 0.1222 and 0.1389 and 0.1212 | 0.07928 and 0.07742 and 0.08432 | 0.1048 and 0.1061 and 0.0973 | 35 and 40 and 48 | 12 and 14 | 8 and 7.7 and 8.4 | 10.4 and 10.6 and 9.7 | concentration at 2 h ([1]; liver, read-out: Concentration in liver): 50 ng/mL
